Patent US10562887B2, “Triazolones and tetrazolones as inhibitors of ROCK” (BRISTOL-MYERS SQUIBB COMPANY, priority 2016, dated 2020)
pIC50: −log10 of the molar value.

Each molecule was assayed against ROCK2 (Homo sapiens (Human), UniProt O75116) (assay: ROCK2 assay (peptide phosphorylation, LABCHIP 3000 Reader)). Conditions: 5 μM ATP, 1.5 μM peptide substrate.
Assay type: biochemical
Experimental: The effectiveness of compounds of the present invention as ROCK inhibitors can be determined in a 30 μL, assay containing 20 mM HEPES, pH 7.5, 20 mM MgCl2, 0.015% Brij-35, 4 mM DTT, 5 μM ATP and 1.5 μM peptide substrate (FITC-AHA-AKRRRLSSLRA-OH). Compounds were dissolved in DMSO so that the final concentration of DMSO was <2%, and the reaction was initiated with Rho kinase variants. After incubation, the reaction was terminated by the addition of EDTA and the phosphorylated and non-phosphorylated peptides separated using a LABCHIP® 3000 Reader (Caliper Life Sciences). […] Compounds were tested in dose-response format, and the inhibition of kinase activity was calculated at each concentration of compound. The inhibition data were fit using a curve-fitting program to determine the IC50; i.e., the concentration of compound required to inhibit 50% of kinase activity.
Representative Examples were tested in the ROCK2 assay described above and found having ROCK2 inhibitory activity.

Chain of ROCK2 (O75116 whole entry, species assumed): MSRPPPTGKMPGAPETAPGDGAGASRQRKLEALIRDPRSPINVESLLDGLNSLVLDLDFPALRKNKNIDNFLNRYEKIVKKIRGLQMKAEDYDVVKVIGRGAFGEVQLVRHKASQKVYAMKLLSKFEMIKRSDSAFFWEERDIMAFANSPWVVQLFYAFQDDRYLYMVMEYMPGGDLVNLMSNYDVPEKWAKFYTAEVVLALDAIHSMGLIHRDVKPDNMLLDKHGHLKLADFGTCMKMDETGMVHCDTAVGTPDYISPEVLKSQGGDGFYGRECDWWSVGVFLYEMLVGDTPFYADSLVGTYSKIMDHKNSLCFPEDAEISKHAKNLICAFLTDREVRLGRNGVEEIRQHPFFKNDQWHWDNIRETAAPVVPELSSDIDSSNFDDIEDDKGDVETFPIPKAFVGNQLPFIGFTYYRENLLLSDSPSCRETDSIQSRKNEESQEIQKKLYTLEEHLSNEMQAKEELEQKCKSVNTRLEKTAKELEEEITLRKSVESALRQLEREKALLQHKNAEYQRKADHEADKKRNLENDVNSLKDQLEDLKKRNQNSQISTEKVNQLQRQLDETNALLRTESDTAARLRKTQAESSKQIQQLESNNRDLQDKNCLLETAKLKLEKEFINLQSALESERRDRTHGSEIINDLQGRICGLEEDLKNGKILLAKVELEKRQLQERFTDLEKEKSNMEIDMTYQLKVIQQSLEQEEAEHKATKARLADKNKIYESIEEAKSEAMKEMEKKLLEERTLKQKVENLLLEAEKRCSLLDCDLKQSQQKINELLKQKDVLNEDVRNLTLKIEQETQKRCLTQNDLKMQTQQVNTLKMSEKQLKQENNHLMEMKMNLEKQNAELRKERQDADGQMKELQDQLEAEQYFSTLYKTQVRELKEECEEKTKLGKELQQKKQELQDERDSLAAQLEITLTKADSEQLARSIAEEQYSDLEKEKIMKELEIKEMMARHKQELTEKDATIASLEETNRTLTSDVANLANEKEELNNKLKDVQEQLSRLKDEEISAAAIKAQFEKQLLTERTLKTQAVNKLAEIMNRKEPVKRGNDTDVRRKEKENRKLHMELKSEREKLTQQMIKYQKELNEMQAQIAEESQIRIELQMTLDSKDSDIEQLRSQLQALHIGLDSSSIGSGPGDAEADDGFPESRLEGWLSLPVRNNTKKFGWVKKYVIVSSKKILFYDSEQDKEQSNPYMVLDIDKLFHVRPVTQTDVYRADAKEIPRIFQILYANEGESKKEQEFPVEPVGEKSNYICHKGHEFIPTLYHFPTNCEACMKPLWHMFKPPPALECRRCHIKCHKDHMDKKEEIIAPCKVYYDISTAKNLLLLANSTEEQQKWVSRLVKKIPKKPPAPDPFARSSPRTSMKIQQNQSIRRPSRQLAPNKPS

Row | pIC50 | Compound
1 | 5.70 to 6.60 | Cc1nn(C(C)c2ccccc2)c(=O)n1-c1ccc(-c2cn[nH]c2)cc1 (stereo not drawn) [Example 73, 4-(4-(1H-pyrazol-4-yl)phenyl)-3-methyl-1-(1-phenylethyl)-1H-1,2,4-triazol-5(4H)-one]
2 | 5.70 to 6.60 | COc1cc(-c2cn[nH]c2)ccc1-n1c(C)nn(Cc2cccc(F)c2)c1=O [Example 74, 1-(3-fluorobenzyl)-4-(2-methoxy-4-(1H-pyrazol-4-yl)phenyl)-3-methyl-1H-1,2,4-triazol-5(4H)-one]
3 | 5.70 to 6.60 | COc1cc(-c2cn[nH]c2)ccc1-n1c(C)nn(C(C)c2ccccc2)c1=O (stereo not drawn) [Example 75, 4-(2-methoxy-4-(1H-pyrazol-4-yl)phenyl)-3-methyl-1-(1-phenylethyl)-1H-1,2,4-triazol-5(4H)-one]
4 | 5.70 to 6.60 | COc1cc(F)cc(Cn2nc(C)n(-c3ccc(-c4cn[nH]c4)cc3OC)c2=O)c1 [Example 76, 1-(3-fluoro-5-methoxybenzyl)-4-(2-methoxy-4-(1H-pyrazol-4-yl)phenyl)-3-methyl-1H-1,2,4-triazol-5(4H)-one]
5 | 5.70 to 6.60 | COc1cc(-c2cn[nH]c2)ccc1-n1c(C)nn(CCc2ccccc2)c1=O [Example 77, 4-(2-methoxy-4-(1H-pyrazol-4-yl)phenyl)-3-methyl-1-phenethyl-1H-1,2,4-triazol-5(4H)-one]
6 | 6.60 to 7.30 | COc1cc(-c2cn[nH]c2)ccc1-n1c(C)nn(Cc2cc(F)ccc2F)c1=O [Example 78, 1-(2,5-difluorobenzyl)-4-(2-methoxy-4-(1H-pyrazol-4-yl)phenyl)-3-methyl-1H-1,2,4-triazol-5(4H)-one]
7 | 7.30 to 8.30 | Cc1nn(-c2ccc(-c3cn[nH]c3)cc2)c(=O)n1Cc1ccccc1 [Example 79, 1-(4-(1H-pyrazol-4-yl)phenyl)-4-benzyl-3-methyl-1H-1,2,4-triazol-5(4H)-one]
8 | > 8.30 | COc1cccc(Cn2c(C)nn(-c3ccc(-c4cn[nH]c4)cc3)c2=O)c1 [Example 80, 1-(4-(1H-pyrazol-4-yl)phenyl)-4-(3-methoxybenzyl)-3-methyl-1H-1,2,4-triazol-5(4H)-one]
9 | 7.30 to 8.30 | Cc1nn(-c2ccc(-c3cn[nH]c3)cc2)c(=O)n1Cc1cccc(F)c1 [Example 81, 1-(4-(1H-pyrazol-4-yl)phenyl)-4-(3-fluorobenzyl)-3-methyl-1H-1,2,4-triazol-5(4H)-one]
10 | 7.30 to 8.30 | Cc1nn(-c2ccc(-c3cn[nH]c3)cc2)c(=O)n1Cc1cc(F)ccc1F [Example 82, 1-(4-(1H-pyrazol-4-yl)phenyl)-4-(2,5-difluorobenzyl)-3-methyl-1H-1,2,4-triazol-5(4H)-one]
11 | > 8.30 | COc1cc(F)cc(Cn2c(C)nn(-c3ccc(-c4cn[nH]c4)cc3)c2=O)c1 [Example 83, 1-(4-(1H-pyrazol-4-yl)phenyl)-4-(3-fluoro-5-methoxybenzyl)-3-methyl-1H-1,2,4-triazol-5(4H)-one]
12 | 6.60 to 7.30 | Cc1nn(-c2ccc(-c3cn[nH]c3)cc2)c(=O)n1C(C)c1ccccc1 (stereo not drawn) [Example 84, 1-(4-(1H-pyrazol-4-yl)phenyl)-3-methyl-4-(1-phenylethyl)-1H-1,2,4-triazol-5(4H)-one]
13 | 6.60 to 7.30 | Cc1nn(-c2ccc(-c3cn[nH]c3)cc2)c(=O)n1CCc1ccccc1 [Example 85, 1-(4-(1H-pyrazol-4-yl)phenyl)-3-methyl-4-phenethyl-1H-1,2,4-triazol-5(4H)-one]
14 | 7.30 to 8.30 | Cc1nn(-c2ccc(-c3cn[nH]c3)cc2)c(=O)n1Cc1ccccc1Cl [Example 86, 1-(4-(1H-pyrazol-4-yl)phenyl)-4-(2-chlorobenzyl)-3-methyl-1H-1,2,4-triazol-5(4H)-one]
15 | 7.30 to 8.30 | Cc1nn(-c2ccc(-c3cn[nH]c3)cc2)c(=O)n1Cc1ccccc1F [Example 87, 2-(4-(1H-pyrazol-4-yl)phenyl)-4-(2-fluorobenzyl)-5-methyl-2,4-dihydro-3H-1,2,4-triazol-3-one]
16 | > 8.30 | COc1cc(-n2nc(C)n(Cc3ccccc3)c2=O)ccc1-c1cn[nH]c1 [Example 88, 4-benzyl-1-(3-methoxy-4-(1H-pyrazol-4-yl)phenyl)-3-methyl-1H-1,2,4-triazol-5(4H)-one]
17 | > 8.30 | COc1cccc(Cn2c(C)nn(-c3ccc(-c4cn[nH]c4)c(OC)c3)c2=O)c1 [Example 89, 1-(3-methoxy-4-(1H-pyrazol-4-yl)phenyl)-4-(3-methoxybenzyl)-3-methyl-1H-1,2,4-triazol-5(4H)-one]
18 | > 8.30 | COc1cc(-n2nc(C)n(Cc3cccc(F)c3)c2=O)ccc1-c1cn[nH]c1 [Example 90, 4-(3-fluorobenzyl)-1-(3-methoxy-4-(1H-pyrazol-4-yl)phenyl)-3-methyl-1H-1,2,4-triazol-5(4H)-one]

Row | pIC50 | Compound
19 | 7.30 to 8.30 | COc1cc(-n2nc(C)n(Cc3cc(F)ccc3F)c2=O)ccc1-c1cn[nH]c1 [Example 91, 4-(2,5-difluorobenzyl)-1-(3-methoxy-4-(1H-pyrazol-4-yl)phenyl)-3-methyl-1H-1,2,4-triazol-5(4H)-one]
20 | > 8.30 | COc1cc(F)cc(Cn2c(C)nn(-c3ccc(-c4cn[nH]c4)c(OC)c3)c2=O)c1 [Example 92, 4-(3-fluoro-5-methoxybenzyl)-1-(3-methoxy-4-(1H-pyrazol-4-yl)phenyl)-3-methyl-1H-1,2,4-triazol-5(4H)-one]
21 | 7.30 to 8.30 | COc1cc(-n2nc(C)n(C(C)c3ccccc3)c2=O)ccc1-c1cn[nH]c1 (stereo not drawn) [Example 93, 1-(3-methoxy-4-(1H-pyrazol-4-yl)phenyl)-3-methyl-4-(1-phenylethyl)-1H-1,2,4-triazol-5(4H)-one]
22 | 7.30 to 8.30 | COc1cc(-n2nc(C)n(CCc3ccccc3)c2=O)ccc1-c1cn[nH]c1 [Example 94, 1-(3-methoxy-4-(1H-pyrazol-4-yl)phenyl)-3-methyl-4-phenethyl-1H-1,2,4-triazol-5(4H)-one]
23 | 7.30 to 8.30 | COc1cc(-n2nc(C)n(Cc3ccccc3F)c2=O)ccc1-c1cn[nH]c1 [Example 95, 4-(2-fluorobenzyl)-1-(3-methoxy-4-(1H-pyrazol-4-yl)phenyl)-3-methyl-1H-1,2,4-triazol-5(4H)-one]
24 | 7.30 to 8.30 | Cc1nn(-c2ccc(-c3cn[nH]c3)cc2)c(=O)n1Cc1cc(F)cc(F)c1 [Example 96, 1-(4-(1H-pyrazol-4-yl)phenyl)-4-(3,5-difluorobenzyl)-3-methyl-1H-1,2,4-triazol-5(4H)-one]
25 | 6.60 to 7.30 | COc1cc(-n2nc(C)n(Cc3cccc(C#N)c3)c2=O)ccc1-c1cn[nH]c1 [Example 97, 3-((1-(3-methoxy-4-(1H-pyrazol-4-yl)phenyl)-3-methyl-5-oxo-1H-1,2,4-triazol-4(5H)-yl)methyl)benzonitrile]
26 | 7.30 to 8.30 | COc1cc(-n2nc(C)n(Cc3c(F)cccc3F)c2=O)ccc1-c1cn[nH]c1 [Example 98, 4-(2,6-difluorobenzyl)-1-(3-methoxy-4-(1H-pyrazol-4-yl)phenyl)-3-methyl-1H-1,2,4-triazol-5(4H)-one]
27 | 7.30 to 8.30 | COc1cc(-n2nc(C)n(Cc3cc(F)cc(F)c3)c2=O)ccc1-c1cn[nH]c1 [Example 99, 4-(3,5-difluorobenzyl)-1-(3-methoxy-4-(1H-pyrazol-4-yl)phenyl)-3-methyl-1H-1,2,4-triazol-5(4H)-one]
28 | 7.30 to 8.30 | COc1cc(-n2nc(C)n(Cc3cccc(OC(F)F)c3)c2=O)ccc1-c1cn[nH]c1 [Example 100, 4-(3-(difluoromethoxy)benzyl)-1-(3-methoxy-4-(1H-pyrazol-4-yl)phenyl)-3-methyl-1H-1,2,4-triazol-5(4H)-one]
29 | 7.30 to 8.30 | COc1cc(-n2nc(C)n(Cc3ccc(F)cc3)c2=O)ccc1-c1cn[nH]c1 [Example 101, 4-(4-fluorobenzyl)-1-(3-methoxy-4-(1H-pyrazol-4-yl)phenyl)-3-methyl-1H-1,2,4-triazol-5(4H)-one]
30 | 6.60 to 7.30 | Cc1nn(-c2ccc(-c3cn[nH]c3)cc2)c(=O)n1Cc1cccc(OC(F)F)c1 [Example 102, 1-(4-(1H-pyrazol-4-yl)phenyl)-4-(3-(difluoromethoxy)benzyl)-3-methyl-1H-1,2,4-triazol-5(4H)-one]
31 | 5.70 to 6.60 | Cc1nn(-c2ccc(-c3cn[nH]c3)cc2)c(=O)n1Cc1cccc(C#N)c1 [Example 103, 3-((1-(4-(1H-pyrazol-4-yl)phenyl)-3-methyl-5-oxo-1H-1,2,4-triazol-4(5H)-yl)methyl)benzonitrile]
32 | 6.60 to 7.30 | Cc1nn(-c2ccc(-c3cn[nH]c3)cc2)c(=O)n1Cc1c(F)cccc1F [Example 104, 1-(4-(1H-pyrazol-4-yl)phenyl)-4-(2,6-difluorobenzyl)-3-methyl-1H-1,2,4-triazol-5(4H)-one]
33 | 7.30 to 8.30 | CCc1cc(-n2nc(C)n(Cc3cccc(OC)c3)c2=O)ccc1-c1cn[nH]c1 [Example 105, 1-(3-ethyl-4-(1H-pyrazol-4-yl)phenyl)-4-(3-methoxybenzyl)-3-methyl-1H-1,2,4-triazol-5(4H)-one]
34 | 7.30 to 8.30 | CCc1cc(-n2nc(C)n(Cc3cccc(F)c3)c2=O)ccc1-c1cn[nH]c1 [Example 106, 1-(3-ethyl-4-(1H-pyrazol-4-yl)phenyl)-4-(3-fluorobenzyl)-3-methyl-1H-1,2,4-triazol-5(4H)-one]
35 | 6.60 to 7.30 | CCc1cc(-n2nc(C)n(Cc3cc(F)ccc3F)c2=O)ccc1-c1cn[nH]c1 [Example 107, 4-(2,5-difluorobenzyl)-1-(3-ethyl-4-(1H-pyrazol-4-yl)phenyl)-3-methyl-1H-1,2,4-triazol-5(4H)-one]
36 | 7.30 to 8.30 | CCc1cc(-n2nc(C)n(Cc3cc(F)cc(F)c3)c2=O)ccc1-c1cn[nH]c1 [Example 108, 4-(3,5-difluorobenzyl)-1-(3-ethyl-4-(1H-pyrazol-4-yl)phenyl)-3-methyl-1H-1,2,4-triazol-5(4H)-one]
